# Measured values reported in patent publication US20050090529A1, “3,5 Disubstituted indazole compounds with nitrogen-bearing 5-membered heterocycles, pharmaceutical compositions, and methods for mediating or inhibiting cell proliferation” (PFIZER INC, priority 2003, published 2005).
# Test system: Cyclin-dependent kinase
# Experiment: Cyclin-dependent kinase inhibition, % inhibition at 10 nM (library Examples 99-270)
# Format: biochemical
# Settings: 10 nM compound
# Method: Cyclin-dependent kinase activity was measured by quantifying the enzyme-catalyzed, time-dependent incorporation of radioactive phosphate from [^32P]ATP or [^33P]ATP into a protein substrate. Unless noted otherwise, assays were performed in 96-well plates in a total volume of 50 μL, in the presence of 10 mM HEPES (N-[2-hydroxyethyl]piperazine-N′-[2-ethanesulfonic acid]) (pH 7.4), 10 mM MgCl2, 25 μM adenosine triphosphate (ATP), 1 mg/mL ovalbumin, 5 μg/mL leupeptin, 1 mM dithiothreitol, 10 mM beta-glycerophosphate, 0.1 mM sodium vanadate, 1 mM sodium fluoride, 2.5 mM ethylene glycol-bis(β-aminoethyl ethKer)-N,N,N′N′-tetraacetic acid (EGTA), 2% (v/v) dimethylsulfoxide, and 0.03-0.4 μCi [^32/33P]ATP per reaction. Reactions were initiated with enzyme, incubated at 30° C., and terminated after 20 minutes by the addition of ethylenediaminetetraacetic acid (EDTA) to 250 mM. The phosphorylated substrate was then captured on a nitrocellulose or phosphocellulose membrane using a 96-well filtration manifold, and unincorporated radioactivity was removed by repeated washing with 0.85% phosphoric acid. Radioactivity was quantified by exposing the dried membranes to a phosphorimager.
# Results of assays performed on compounds, which include the specific examples described above are provided in Examples 99-274 above, and in Table 1 below. Unless indicated otherwise in a particular entry, the units and assays used are as indicated in the applicable column of the table.
row,% Inhib @ 10 nM [%],SMILES
1,29,"CCNCc1cncc(-c2ccc3[nH]nc(-c4ncc(C(=O)N5CCCC(O)(Cn6cccn6)CC5)[nH]4)c3c2)c1C (stereo not shown) [Example 265, 1-{[2-(5-{5-[(ethylamino)methyl]-4-methylpyridin-3-yl}-1H-indazol-3-yl)-1H-imidazol-5-yl]carbonyl}-4-(1H-pyrazol-1-ylmethyl)azepan-4-ol]"
2,21,"CCNCc1cncc(-c2ccc3[nH]nc(-c4ncc(C(=O)N5CCCC(O)(CN6CCCC6=O)CC5)[nH]4)c3c2)c1C (stereo not shown) [Example 267, 1-[(1-{[2-(5-{5-[(ethylamino)methyl]-4-methylpyridin-3-yl}-1H-indazol-3-yl)-1H-imidazol-5-yl]carbonyl}-4-hydroxyazepan-4-yl)methyl]pyrrolidin-2-one]"
3,71,CCNCc1cncc(-c2ccc3[nH]nc(-c4ncc(C(=O)NCCSc5ccc(F)cc5)[nH]4)c3c2)c1C [Example 223]
4,15,CCNCc1cncc(-c2ccc3[nH]nc(-c4ncc(C(=O)N5CCCC(O)(CN6CCOCC6)CC5)[nH]4)c3c2)c1C (stereo not shown) [Example 268]
5,71,CCNCc1cncc(-c2ccc3[nH]nc(-c4ncc(C(=O)NCc5ccc(OC)c6ccccc56)[nH]4)c3c2)c1C [Example 212]
6,49,"CCNCc1cncc(-c2ccc3[nH]nc(-c4ncc(C(=O)NCc5ccc(S(C)(=O)=O)cc5)[nH]4)c3c2)c1C [Example 202, 2-(5-{5-[(ethylamino)methyl]-4-methylpyridin-3-yl}-1H-indazol-3-yl)-N-[4-(methylsulfonyl)benzyl]-1H-imidazole-5-carboxamide]"
7,44,CCNCc1cncc(-c2ccc3[nH]nc(-c4ncc(C(=O)N5CC6C[C@H]5CN6)[nH]4)c3c2)c1C [Example 187]
8,30,"CCNCc1cncc(-c2ccc3[nH]nc(-c4ncc(C(=O)N(CCO)C5CCCCC5)[nH]4)c3c2)c1C [Example 245, N-cyclohexyl-2-(5-{5-[(ethylamino)methyl]-4-methylpyridin-3-yl}-1H-indazol-3-yl)-N-(2-hydroxyethyl)-1H-imidazole-5-carboxamide]"
9,67,"CCNCc1cncc(-c2ccc3[nH]nc(-c4ncc(C(=O)N5CCNC(=O)CC5)[nH]4)c3c2)c1C [Example 231, 1-{[2-(5-{5-[(ethylamino)methyl]-4-methylpyridin-3-yl}-1H-indazol-3-yl)-1H-imidazol-5-yl]carbonyl}-1,4-diazepan-5-one]"
10,62,"CCNCc1cncc(-c2ccc3[nH]nc(-c4ncc(C(=O)N5CCC(c6ccn[nH]6)CC5)[nH]4)c3c2)c1C [Example 250, ethyl({4-methyl-5-[3-(5-{[4-(1H-pyrazol-5-yl)piperidin-1-yl]carbonyl}-H-imidazol-2-yl)-1 H-indazol-5-yl]pyridin-3-yl}methyl)amine]"
11,20,"CCNCc1cncc(-c2ccc3[nH]nc(-c4ncc(C(=O)NCC56CCCN5CCC6)[nH]4)c3c2)c1C [Example 219, 2-(5-{5-[(ethylamino)methyl]-4-methylpyridin-3-yl}-1H-indazol-3-yl)-N-(tetrahydro-1H-pyrrolizin-7a(5H)-ylmethyl)-1H-imidazole-5-carboxamide]"
12,32,"CCNCc1cncc(-c2ccc3[nH]nc(-c4ncc(C(=O)N5CCCC5c5cccc6ccccc56)[nH]4)c3c2)c1C (stereo not shown) [Example 195, ethyl({4-methyl-5-(3-(5-{[2-(1-naphthyl)pyrrolidin-1-yl]carbonyl}-1H-imidazol-2-yl)-1 H-indazol-5-yl]pyridin-3-yl]methyl)amine]"

# Further lines, the molecule ahead of its results:
row,SMILES,% Inhib @ 10 nM [%]
1,"CCNCc1cncc(-c2ccc3[nH]nc(-c4ncc(C(=O)N5CCCN(C)CC5)[nH]4)c3c2)c1C [Example 119, ethyl{(4-methyl-5-(3-{5-[(4-methyl-1,4-diazepan-1-yl)carbonyl]-1H-imidazol-2-yl}-1H-indazol-5-yl)pyridin-3-yl]methyl}amine]",38
2,"CCNCc1cncc(-c2ccc3[nH]nc(-c4ncc(C(=O)N5CCC(CO)CC5)[nH]4)c3c2)c1C [Example 177, (1-{[2-(5-{5-[(ethylamino)methyl]-4-methylpyridin-3-yl}-1H-indazol-3-yl)-1H-imidazol-5-yl]carbonyl}piperidin-4-yl)methanol]",63
3,CCNCc1cncc(-c2ccc3[nH]nc(-c4ncc(C(=O)NC(C)CO)[nH]4)c3c2)c1C (stereo not shown) [Example 100],65
4,"CCNCc1cncc(-c2ccc3[nH]nc(-c4ncc(C(=O)N(CCN(C)C)Cc5ccccc5)[nH]4)c3c2)c1C [Example 123, N-benzyl-N-[2-(dimethylamino)ethyl]-2-(5-{5-[(ethylamino)methyl]-4-methylpyridin-3-yl}-1H-indazol-3-yl)-1H-imidazale-5-carboxamide]",54
5,CCNCc1cncc(-c2ccc3[nH]nc(-c4ncc(C(=O)N5CCC(n6c(=O)[nH]c7ccccc76)CC5)[nH]4)c3c2)c1C [Example 107],59
6,CCNCc1cncc(-c2ccc3[nH]nc(-c4ncc(C(=O)N5CCN(C(C)=O)CC5)[nH]4)c3c2)c1C [Example 116],66
7,"CCNCc1cncc(-c2ccc3[nH]nc(-c4ncc(C(=O)N5CCCC5)[nH]4)c3c2)c1C [Example 138, ethyl[(4-methyl-5-{3-[5-(pyrrolidin-1-ylcarbonyl)-1H-imidazol-2-yl]-1H-indazol-5-yl}pyridin-3-yl)methyl]amine]",79
8,"CCNCc1cncc(-c2ccc3[nH]nc(-c4ncc(C(=O)NCCO)[nH]4)c3c2)c1C [Example 153, 2-(5-{5-[(ethylamino)methyl]-4-methylpyridin-3-yl}-1H-indazol-3-yl)-N-(2-hydroxyethyl)-1H-imidazole-5-carboxamide]",70
9,CCNCc1cncc(-c2ccc3[nH]nc(-c4ncc(C(=O)N5CCN(c6ccccc6C#N)CC5)[nH]4)c3c2)c1C [Example 147],69
10,CCNCc1cncc(-c2ccc3[nH]nc(-c4ncc(C(=O)NCc5ccc(F)c(C(F)(F)F)c5)[nH]4)c3c2)c1C [Example 148],60
11,"CCNCc1cncc(-c2ccc3[nH]nc(-c4ncc(C(=O)N5CCN(CC(=O)N6CCOCC6)CC5)[nH]4)c3c2)c1C [Example 127, ethyl({4-methyl-5-[3-(5-{[4-(2-morpholin-4-yl-2-oxoethyl)piperazin-1-yl]carbonyl}-1H-imidazol-2-yl)-1H-indazol-5-yl]pyridin-3-yl}methyl)amine]",26
12,"CCNCc1cncc(-c2ccc3[nH]nc(-c4ncc(C(=O)N[C@@H](CO)[C@@H](O)c5ccc(SC)cc5)[nH]4)c3c2)c1C [Example 111, 2-(5-{5-[(ethylamino)methyl]-4-methylpyridin-3-yl}-1H-indazol-3-yl)-N-{(1S,2S)-2-hydroxy-1-(hydroxymethyl)-2-[4-(methylthio)phenyl]ethyl}-1H-imidazole-5-carboxamide]",73
13,"CCNCc1cncc(-c2ccc3[nH]nc(-c4ncc(C(=O)N(CC)CCOC)[nH]4)c3c2)c1C [Example 175, N-ethyl-2-(5-{5-[(ethylamino)methyl]-4-methylpyridin-3-yl}-1H-indazol-3-yl)-N-(2-methoxyethyl)-1H-imidazole-5-carboxamide]",68
